Measured values: patent US20200207734A1, “HETEROCYCLIC COMPOUND AND USE THEREOF” (Takeda Pharmaceutical Company Limited, priority 2017, published 2020)

Assays:
[1] = system: cynomolgus monkeys; assay: Evaluation of wake-promoting effects in cynomolgus monkeys (EEG/EMG/EOG); type: in vivo; conditions: 10 mg/kg, p.o., at ZT12, 4 h after administration, male cynomolgus monkeys, Mean, n = 4-8, cross-over design
Description: The wake-promoting effects were evaluated by measuring the electroencephalogram (EEG), electromyogram (EMG) and electrooculogram (EOG) in cynomolgus monkeys. Under isoflurane anesthesia (1-5%, Pfizer Japan Inc., Tokyo, Japan), male cynomolgus monkeys (3-5 years old, Hamri Co., Ltd., Ibaraki, Japan) were surgically implanted with radio-telemetry transmitters (TL10M3-D70-EEE, Data Sciences International Inc., MN, USA). EEG leads were stereotaxically positioned at the parietal area and secured to the cranium with stainless-steel screws in contact with the dura. […] Bilateral EMG leads were implanted into the back cervical muscles. After the surgery, each monkey was given penicillin (100,000 units/head, i.m., Meiji Seika Pharma Co., Ltd., Tokyo, Japan), buprenorphine (0.02 mg/kg, i.m., Otsuka Pharmaceutical Co., Ltd., Tokyo, Japan) and prednisolone (1 mg/kg, s.c., Kyoritsu Seiyaku Co., Ltd., Tokyo, Japan) daily for one week. After at least a 1-month recovery period in home cages, the monkeys were habituated to the recording chamber (an acrylic cage 60W×55D×75H (cm)) located in a soundproof, electrically shielded room. After we confirmed that monkeys slept sufficiently in the experimental room, cortical EEG, EMG and EOG signals were recorded using Dataquest ART software (Data Sciences International Inc., MN, USA). The signals were semi automatically scored in 20 sec epochs by a sleep scoring system (SleepSign, Kissei Comtec Co., Ltd., Nagano, Japan). This preliminary scoring was visually inspected and corrected if necessary. Test compound (10 mg/kg, Table 4-1) suspended in 0.5% methylcellulose aqueous solution, or vehicle (i.e., 0.5% methylcellulose aqueous solution) was administered orally (p.o.) to monkeys at zeitgeber time 12 (ZT12) in a volume of 5 mL/kg body weight in a cross-over design. EEG, EMG and EOG recordings were performed for 4 h after the compound administration/treatments. The time spent in wakefulness for 4 h after administration (% of vehicle treatment) was calculated by using SleepSign. Test compound (1 mg/kg, Table 4-2) dissolved in a mixed solution comprising 5% DMSO, 5% Cremophor EL, 20% PEG400 and 70% soluplus (1% (w/v)), or vehicle (i.e., a mixed solution comprising 5% DMSO, 5% Cremophor EL, 20% PEG400 and 70% soluplus (1% (w/v))) was administered subcutaneously (s.c.) to monkeys at ZT12 in a volume of 0.5 mL/kg body weight in a pre-post design. EEG, EMG and EOG recordings were performed for 4 h after the compound administration/treatments. The time spent in wakefulness for 4 h after administration (% of vehicle treatment) was calculated by using SleepSign.

[2] = Evaluation of microsome stability in human; type: in vitro ADME; conditions: human liver microsomes 0.2 mg/mL, 1 μmol/L test compound, pH 7.4, NADPH-generating system, 15 and 30 min; read-out: Clearance (in vitro intrinsic metabolic clearance)
Description: Human liver microsomes were purchased from Xenotech, LLC (Lenexa, Kans.). An incubation mixture consisted of microsomes in 50 mmol/L KH2PO4—K2HPO4 phosphate buffer (pH 7.4) and 1 μmol/L test compound. The concentration of microsomal protein was 0.2 mg/mL. An NADPH-generating system (5 mmol/L MgCl2, 5 mmol/L glucose-6-phosphate, 0.5 mmol/L beta-NADP+ and 1.5 unit/mL glucose-6-phosphate dehydrogenase) was added to the incubation mixture with a half volume of the reaction mixture to initiate the enzyme reaction. The reaction was terminated 15 and 30 minutes after the initiation of the reaction by mixing the reaction mixture with acetonitrile, followed by centrifugation at 2500 rpm for 10 min. The supernatant was subjected to LC/MS/MS analysis. The metabolic velocity was calculated as the slope of the concentration-time plot. The in vitro intrinsic metabolic clearance was calculated by dividing initial metabolic velocity by the test compound concentration in the incubation mixture.

[3] = target: T1, human orexin type 2 receptor (Homo sapiens, UniProt O43614); assay: Measurement of orexin type 2 receptor agonist activity (calcium fluorescence, CHO cells expressing hOX2R); type: cell-based; conditions: test compound 3 μM; CHO cells expressing human OX2 receptor; DMSO = 0%, orexin A (human) = 100%
T1 construct: human orexin type 2 receptor cDNA was inserted into pcDNA3.1(+) plasmid vector (Invitrogen); expressed in transfected cells
T1 sequence (O43614 1-444): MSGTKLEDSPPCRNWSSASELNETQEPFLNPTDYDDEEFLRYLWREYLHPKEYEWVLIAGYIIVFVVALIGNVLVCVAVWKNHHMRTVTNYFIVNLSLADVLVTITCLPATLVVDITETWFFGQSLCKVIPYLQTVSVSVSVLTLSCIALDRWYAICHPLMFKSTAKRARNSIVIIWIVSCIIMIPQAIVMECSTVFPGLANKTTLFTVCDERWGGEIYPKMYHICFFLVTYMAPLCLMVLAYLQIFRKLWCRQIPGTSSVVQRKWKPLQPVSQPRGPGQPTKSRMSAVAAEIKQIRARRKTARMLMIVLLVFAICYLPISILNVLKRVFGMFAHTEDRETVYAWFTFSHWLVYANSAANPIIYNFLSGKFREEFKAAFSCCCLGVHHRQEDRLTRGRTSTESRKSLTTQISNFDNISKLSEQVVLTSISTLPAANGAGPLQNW
How it was run: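 CHO-dhfr cells stably expressing hOX2R, loaded with Fluo-4 AM in HBSS/20 mM HEPES/0.1% BSA with probenecid, then given test compound. Calcium fluorescence was read for about 2 min 40 sec. Activity (%) was scaled between DMSO (0%) and 10 nM final human orexin A (100%).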

Row | Structure (SMILES) | Wakefulness time (% of vehicle treatment) [1] | microsomal CLint at 1 μmol/L [2] [µL/min/mg] | OX2R agonist activity (3 μM, %) [3] [%]
1 | CC(C)(O)C(=O)N1CC[C@H](NS(C)(=O)=O)[C@@H]1Cc1cccc(-c2cc(F)cc(F)c2)c1F [Example 483, N-((2S,3S)-1-(2-hydroxy-2-methyl-propanoyl)-2-((2,3′,5′-trifluorobi-phenyl-3-yl)methyl)pyrrolidin-3-yl)methanesulfonamide] | 359.35 % of vehicle treatment | 6 | 103
2 | CCS(=O)(=O)N[C@H]1CCN(C(=O)C(C)(C)O)[C@H]1Cc1cccc(-c2cc(F)cc(F)c2)c1F [Example 484, N-((2S,3S)-1-(2-hydroxy-2-methyl-propanoyl)-2-((2,3′,5′-trifluorobi-phenyl-3-yl)methyl)pyrrolidin-3-yl)ethanesulfonamide] | 492.32 % of vehicle treatment | 23 | 112
